Results on six compounds are retold here after patent publication US6043231A, “Inhibition of excessive phospholipase A2 activity and/or production by non-antimicrobial tetracyclines” (The Research Foundation of State Univ. of New York, priority 1993, dated 2000).

What all share (format): biochemical
Experiment [1] addresses T1, recombinant human PLA2 (snpPLA2) (Homo sapiens, UniProt P14555).
T1 sequence (P14555 21-144): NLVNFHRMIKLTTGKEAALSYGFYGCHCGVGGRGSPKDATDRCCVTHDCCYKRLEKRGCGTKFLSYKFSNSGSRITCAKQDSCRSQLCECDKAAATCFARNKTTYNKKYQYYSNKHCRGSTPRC
The experiment in a line: PLA2 inhibition, radiolabelled E. coli assay, recombinant human PLA2. As to the method:
(§1) Six different chemically-modified tetracyclines, including CMT-1 (4-dedimethylaminotetracycline), CMT-2 (tetracyclinonitrile), CMT-3 (6-demethyl-6-deoxy-4-de-dimethylaminotetracycline), CMT-4 (4-de-dimethylamino-7-chloro-tetracycline), CMT-5 (pyrazole analog) and CMT-6 (4-hydroxy-4-dedimethylaminotetracycline), were examined for their ability to inhibit PLA2 activity in vitro. The sources of PLA2 that were tested included recombinant human PLA2, human pancreatic and porcine pancreatic PLA2 and Naja naja PLA2. […] Various concentrations of CMTs, ranging from 5-100 μg/ml, were preincubated with the different PLA2 enzymes for 30 minutes and the mixture was tested for PLA2 activity using a known E. coli assay method (see Arthritis and Rheumatism, 34 Supp. 9: p. S160 (abst C167)).
(§2) A chemically-modified tetracycline, 4-dedimethyl-amino-7-dimethylaminotetracycline (CMT-10), was examined for its ability to inhibit PLA2 activity in vitro. The sources of PLA2 that were tested included were recombinant human PLA2 (snpPLA2), human pancreatic and porcine pancreatic PLA2 and Naja naja PLA2. […] Various concentrations of CMT-10, ranging from 5-100 μg/ml, were preincubated with the different PLA2 enzymes for 30 minutes and the mixture was tested for PLA2 activity using a known E. coli assay method (see Arthritis and Rheumatism, 34 Supp. 9: p. S160 (abst C167)).
(§3) In particular, [^14 C]Oleic acid-labelled Escherichia coli (strain K12 C600) were used as the substrate. This substrate has been characterized with respect to phospholipid composition and distribution of radiolabel. Reaction mixtures contained 10 mg bovine serum albumin, 2 mM CaCl2, 2.8×10^8 radiolabelled E. coli and 0.1 M Tris-HCl buffer, pH 7.5 in a total volume of 1.5 ml. Reaction mixtures were incubated at 37° C. for 30 min. The reaction was terminated by filtration through a 0.45 μm Millipore filter, thereby retaining unhydrolysed E. coli membranes, and allowing the [^14 C]oleic acid bound to the BSA carrier, released as a result of PLA2 hydrolysis, to pass through the filter. Assays were performed in duplicate and values shown represent the mean of two determinations with a SD<5% of the mean. Assays were performed in substrate excess and enzyme activities were corrected for non-enzymatichydrolysis. One unit of PLA2 activity is defined as the hydrolysis of 56 pmol of phospholipid substrate (representing 1% of total E. coli phospholipid) in 30 min at 37° C.

A further experiment deals with T2, human pancreatic PLA2 (Homo sapiens, UniProt P04054).
T2 construct: labelled E. coli membrane substrate
Kind of experiment: PLA2 inhibition, E. coli assay, human pancreatic PLA2. The protocol:
as §1, §2, §3

Another experiment addresses T3, porcine pancreatic PLA2 (Sus scrofa, UniProt P00592).
T3 construct: labelled E. coli membrane substrate
Kind of experiment: PLA2 inhibition, E. coli assay, porcine pancreatic PLA2. As to the method: as §1, §2, §3

[2] abbreviates: concentrations of 25 μg/ml or greater.
Where [3] appears, read: recombinant human PLA2, 30 min preincubation.

The structures appear in SMILES notation.

T3 sequence (P00592 23-146): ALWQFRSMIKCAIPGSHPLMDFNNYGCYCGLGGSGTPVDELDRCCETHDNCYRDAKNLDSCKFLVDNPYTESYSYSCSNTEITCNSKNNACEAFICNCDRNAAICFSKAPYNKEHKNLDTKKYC
T2 sequence (P04054 23-148): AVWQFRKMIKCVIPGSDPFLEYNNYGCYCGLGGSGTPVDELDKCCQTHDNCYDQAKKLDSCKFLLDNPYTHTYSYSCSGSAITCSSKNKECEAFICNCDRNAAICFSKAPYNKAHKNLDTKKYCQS

`CC1(O)c2cccc(O)c2C(=O)C2=C(O)C3(O)C(=O)C(C(N)=O)=C(O)CC3CC21` (stereo not drawn) [CMT-1, 4-dedimethylaminotetracycline]: the PLA2-inhibitory activity entry in experiment [1] (setting [2]) is on record as “exhibited significant PLA2 -inhibitory activity”. For the same compound, in experiment [1] (setting [3]), the “IC50 (concentration of the drug required to inhibit 50% of PLA2)” value is 37 µg/mL. Further, the “inhibition of human pancreatic PLA2” value on human pancreatic PLA2 was “found to inhibit”. In addition, on porcine pancreatic PLA2, the “inhibition of porcine pancreatic PLA2” value is on record as “found to inhibit”.

As for `CN(C)C1C(=O)C(C#N)=C(O)C2(O)C(=O)C3=C(O)c4c(O)cccc4C(C)(O)C3CC12` (stereo not drawn) [CMT-2, tetracyclinonitrile], the PLA2-inhibitory activity entry in experiment [1] (highest concentrations tested (range 5-100 μg/ml)) is “lacked any PLA2 -inhibitory activity”.

On to `NC(=O)C1=C(O)C2(O)C(=O)C3=C(O)c4c(O)cccc4CC3CC2CC1=O` (stereo not drawn) [CMT-3, 6-demethyl-6-deoxy-4-de-dimethylaminotetracycline], for which, in experiment [1] (setting [2]), the PLA2-inhibitory activity entry is reported as “exhibited significant PLA2 -inhibitory activity”. Further, in experiment [1] (recombinant human PLA2, 30 min preincubation, read-out: IC50 (concentration of the drug required to inhibit 50% of PLA2) (converted)), the IC50 was 75.4 µM. The “inhibition of human pancreatic PLA2” value against human pancreatic PLA2 was “found to inhibit”. Besides, at porcine pancreatic PLA2, the “inhibition of porcine pancreatic PLA2” value is “found to inhibit”.

For `CC1(O)c2c(Cl)ccc(O)c2C(=O)C2=C(O)C3(O)C(=O)C(C(N)=O)=C(O)CC3CC21` (stereo not drawn) [CMT-4, 4-de-dimethylamino-7-chloro-tetracycline], in experiment [1] (setting [2]), the PLA2-inhibitory activity entry is given as “exhibited significant PLA2 -inhibitory activity”. For the same compound, the “IC50 (concentration of the drug required to inhibit 50% of PLA2)” value in experiment [1] (setting [3]) was 42 µg/mL. Moreover, the “inhibition of human pancreatic PLA2” value at human pancreatic PLA2 is “found to inhibit”. In addition, the “inhibition of porcine pancreatic PLA2” value on porcine pancreatic PLA2 is on record as “found to inhibit”.

Consider `CC1(O)c2cccc(O)c2C(=O)C2=C(O)C3(O)C(=O)C(C(N)=O)=C(O)C(O)C3CC21` (stereo not drawn) [CMT-6, 4-hydroxy-4-dedimethylaminotetracycline], for which the PLA2-inhibitory activity result in experiment [1] (setting [2]) is “exhibited significant PLA2 -inhibitory activity”. Moreover, the “IC50 (concentration of the drug required to inhibit 50% of PLA2)” value in experiment [1] (setting [3]) turned out to be 17 µg/mL. The “inhibition of human pancreatic PLA2” value against human pancreatic PLA2 is reported as “found to inhibit”. Moreover, the “inhibition of porcine pancreatic PLA2” value at porcine pancreatic PLA2 was “found to inhibit”.

In the case of `CN(C)c1ccc(O)c2c1C(C)(O)C1CC3CC(O)=C(C(N)=O)C(=O)C3(O)C(O)=C1C2=O` (stereo not drawn) [CMT-10, 4-dedimethylamino-7-dimethylaminotetracycline], the PLA2-inhibitory activity result in experiment [1] (setting [2]) is given as “exhibited significant PLA2 -inhibitory activity”. Besides, the “IC50 (concentration of the drug required to inhibit 50% of PLA2)” value in experiment [1] (setting [3]) was 30 µg/mL. Also, on human pancreatic PLA2, the “inhibition of human pancreatic PLA2” value was “found to inhibit”. Moreover, on human pancreatic PLA2 (30 μg/ml, human pancreatic PLA2), the % inhibition (usually the change of the read-out against control, counted positive when it falls) is 66%.
